Data reported in patent US20080267936A1, “Treatment of trauma-hemorrhage with short oligopeptides” (Biotempt B.V., priority 2007, published 2008).

How the values were obtained:
TNF-α [1] = assay: Hemorrhagic shock model, Example 2: TNF-α mRNA transcripts in tissue by RQ-PCR; format: in vivo, Wistar rats; conditions: 180 minutes after onset of shock, 10 mg/kg, normalized against GAPDH
Protocol: (§1) Experimental procedures: After an acclimatization period of 15 minutes, the rats were randomized into five different groups: 1) sham, 2) hemorrhagic shock (HS), 3) hemorrhagic shock with LQGV (SEQ ID NO:2) treatment (HS/LQGV (SEQ ID NO:2)), 4) hemorrhagic shock with AQGV treatment (HS/AQGV (SEQ ID NO:1)) and 5) hemorrhagic shock with LAGV (SEQ ID NO:3) treatment (HS/LAGV (SEQ ID NO:3). Hemorrhagic shock was induced by blood withdrawal, reducing the circulating blood volume until a mean arterial pressure (MAP) of […] mmHg was reached. This level of hypotension was maintained for 60 minutes. After 30 minutes, rats received either a single bolus injection of 10 mg/kg LQGV (SEQ ID NO:2), AQGV (SEQ ID NO:1), LAGV (SEQ ID NO:3), or 0.9% NaCl solution. The peptides and dosage were based on previous studies, in which we performed dose-escalation experiments (manuscript in preparation). Sixty minutes after induction of hemorrhagic shock, rats were resuscitated by autologous blood transfusion over a period of 30 minutes and monitored for another 120 minutes, after which they were sacrificed (FIG. 7, Panel A). Sham animals underwent the same surgical procedure as the hemorrhagic shock animals, but without performing hemorrhage and administration of peptides.
(§2) Tissue collection and storage: Liver, lungs, ileum and sigmoid were surgically removed at the end of the experiment, snap-frozen, and stored at −80° C., until assayed.
(§3) Evaluation of mRNA levels by real-time quantitative (RQ)-PCR: RNA was isolated using a QIAGEN kit (QIAGEN, Hilden, Germany), according to the manufacturer's instructions. TNF-α, IL-6 and ICAM-1 transcripts were determined by RQ-PCR using an Applied Biosystems 7700 PCR machine (Foster City, Calif., USA) as described previously.^[27] TNF-α, IL-6 and ICAM-1 expression was quantified by normalization against GAPDH.
(§4) Statistical analysis: Statistical analysis was performed using SPSS version 11 software (SPSS Inc., Chicago, Ill.). Inter-group differences were analyzed with Kruskal-Wallis statistical test.

hemorrhagic shock = assay: Hemorrhagic shock model, Example 1 (bled to MAP 40 mmHg, 0.9% NaCl resuscitation): blood cells, hematocrit, hepatic blood flow; format: in vivo, Wistar rats; conditions: for leukocyte concentration, peptide-treated vs non-treated animals: 5 mg/kg i.v. 30 minutes after induction of shock; for leukocytes, minimum during trauma-hemorrhage: 100% at T0, 5 mg/kg i.v. single bolus 30 minutes after induction of shock; for concentrations of circulating macrophages and granulocytes compared to the non-treated animals: 120 minutes after the onset of hemorrhagic shock, single dose; for blood levels of circulating macrophages and granulocytes / concentrations of circulating macrophages and granulocytes compared with the corresponding experimental group / decrease of circulating macrophages and granulocytes compared with concentrations after trauma-hemorrhage: 180 minutes after onset of trauma-hemorrhage; for arterial hepatic blood flow during the shock period: control group 102.6±23.5%
Protocol: Adult male specific pathogen-free Wistar rats (Harlan CPB, Zeist, The Netherlands), weighing 350 to 400 g were used after a minimum seven-day acclimation period. The animals were housed under barrier conditions and kept at 25° C. with a twelve-hour light/dark cycle. Rats were allowed free access to water and chow (−). All procedures were performed in accordance with the Principles of Laboratory Animal Care (NIH publication No. 86-23, revised 1985) under a protocol approved by the Committee on Animal Research of the Erasmus University (protocol EUR 365).
The rats were fasted overnight but were allowed free access to water before the experiment. Subsequent to endotracheal intubation, the rats were mechanically ventilated with an isoflurane (−) N2O/O2 mixture at 60 breaths/minute. Body temperature was continuously maintained at 37.5° C. by placing the animals on a thermo controlled “half-pipe” (UNO, The Netherlands). Polyethylene tubes (PE-50, Becton Dickinson; St. Michielsgestel, The Netherlands) were flushed with heparin and placed via the right carotid artery in the aorta and in the right internal jugular vein. The animals received no heparin before or during the experiment.
Mean arterial pressures (MAP) was measured using transducers (Becton Dickinson) that were connected in line to an electronic recorder (Hewlett Packard, 78354-A Germany) for electronically calculated mean pressures and continuous measurement of the animal's blood pressure. Under semi-sterile conditions, a median laparotomy was performed and ultrasonic perivascular flow probes (Transonic Systems Inc, Maastricht, The Netherlands) were placed on the common hepatic artery and the portal vein. A supra pubic catheter was placed to monitor the urine production during and after resuscitation.
After an acclimatization period of 20 minutes, the rats were randomized into the following five groups: • Hemorrhagic shock group were bled within ten minutes to a mean arterial pressure (MAP) of 40 mmHg and maintained at this level for 60 minutes by withdrawing or re-infusing shed blood as needed. Thereafter, the animals were resuscitated with plus minus four times the volume of the withdrawn blood over 30 minutes with a 0.9% NaCl solution. • The hemorrhagic shock group+peptide A (LAGV (SEQ ID NO:3); one-letter amino acid code) underwent the same procedure as the hemorrhagic shock group but received a single bolus injection of 5 mg/kg peptide A intravenously 30 minutes after the induction of shock. • The hemorrhagic shock group+peptide B (AQGV (SEQ ID NO:1)) underwent the same procedure as the hemorrhagic shock group and received a single bolus injection of 5 mg/kg peptide B intravenously, 30 minutes after the induction of shock. • The hemorrhagic shock group+peptide C (LQGV (SEQ ID NO:2)) underwent the same procedure as the hemorrhagic shock group and received a single bolus injection of 5 mg/kg peptide C intravenously, 30 minutes after the induction of shock. • Sham group underwent the same procedure as the hemorrhagic shock group without performing the hemorrhage or administration of any kind of peptides.
The hepatic arterial blood flow (QHA) and hepatic portal venous blood flow (QVP) were measured with transit time ultrasonic perivascular flow probes, connected to an ultrasonic meter (T201; Transonic Systems, Inc., Maastricht, NL). Systemic and hepatic hemodynamics were continuously measured. At regular time points, arterial blood samples were taken. The animals were euthanized by withdrawal of arterial blood via the carotid artery.
Plasma collection and storage: Whole arterial blood was obtained at −15, 30, 60, 90, 120, 150 and 180 minutes after induction of shock via the right carotid artery and collected in duplo. 0.2 ml was placed in tubes (Eppendorf EDTA KE/1.3) to be assayed in the coulter counter (−). 0.5 ml was placed in Minicollect tubes (Bio-one, Greiner) centrifuged for five minutes, immediately frozen, and stored at −80° C., until assayed. […]

TNF-α [2] = assay: Hemorrhagic shock model, Example 2: TNF-α plasma levels by ELISA; format: in vivo, Wistar rats; conditions: for increase in plasma TNF-α levels during the experiment: 10 mg/kg single bolus 30 minutes after onset of shock, up to 180 minutes; for TNF-α plasma levels: 10 mg/kg single dose after induction of hemorrhagic shock, vs non-treated HS
Protocol: (§5) Adult male specific pathogen-free Wistar rats (Harlan CPB, Zeist, The Netherlands), weighing 350 to 400 g were used. Animals were housed under barrier conditions at 25° C. with a twelve-hour light/dark cycle, and were allowed food and water ad libitum. The experimental protocol was approved by the Animal Experiment Committee under the Dutch Experiments on Animals Act and adhered to the rules laid down in this national law that serves the implementation of “Guidelines on the protection of experimental animals” by the Council of Europe (1986), Directive 86/609/EC.
(§6) Synthetic oligopeptides: The oligopeptides (LQGV (SEQ ID NO:2), AQGV (SEQ ID NO:1), and LAGV (SEQ ID NO:3)) were synthesized by Ansynth Service B.V. (Roosendaal, The Netherlands) and dissolved in 0.9% NaCl at a concentration of 10 mg/ml.
Surgical procedures: Rats were food deprived overnight before the experiment, but were allowed water ad libitum. Rats were anesthetized using a mixture of N2O/O2 isoflurane (Pharmachemie B.V., Haarlem, The Netherlands). Body temperature was continuously maintained at 37.5° C. by placing the rats on a thermo controlled “half-pipe” (UNO, Rotterdam, The Netherlands). Endotracheal intubation was performed, and rats were ventilated at 60 breaths per minute with a mixture of N2O/O2 2% isoflurane. Polyethylene tubes (PE-50, Becton Dickinson; St. Michielsgestel, The Netherlands) were flushed with heparin and placed via the right carotid artery in the aorta and in the right internal jugular vein. The rats received no heparin before or during the experiment.
as §1
Plasma collection and storage: Arterial blood was obtained 15 minutes before and 30, 60, 90, 120, 150 and 180 minutes after onset of hemorrhage (FIG. 7, Panel A). After blood withdrawal, leukocyte numbers were determined using a coulter counter (Beckman Coulter, Mijdrecht, The Netherlands) and corrected for the hematocrit. Approximately 0.3 ml of blood was placed into mini collect tubes (Greiner, Bio-one, Alphen a/d Rijn, The Netherlands), plasma was obtained by centrifugation (1500 r.p.m.; five minutes), immediately frozen, and stored at −80° C., until assayed.
Measurement of cytokines: TNF-α and IL-6 plasma levels were determined by ELISA (R&D Systems Europe Ltd., Abingdon, UK), according to the manufacturer's instructions.
as §4

IL-6 [3] = assay: Hemorrhagic shock model, Example 2: IL-6 mRNA transcripts in tissue by RQ-PCR; format: in vivo, Wistar rats; conditions: 180 minutes after onset of shock, 10 mg/kg, normalized against GAPDH
Protocol: as §1, §2, §3, §4

IL-6 [4] = assay: Hemorrhagic shock model, Example 2: IL-6 plasma levels by ELISA; format: in vivo, Wistar rats; conditions: 10 mg/kg single dose; 120, 150 and 180 minutes after onset of shock
Protocol: as §5, §6
Surgical procedures: Rats were food deprived overnight before the experiment, but were allowed water ad libitum. Rats were anesthetized using a mixture of N2O/O2 isoflurane (Pharmachemie B.V., Haarlem, The Netherlands). […]
Experimental procedures: After an acclimatization period of 15 minutes, the rats were randomized into five different groups: 1) sham, 2) hemorrhagic shock (HS), 3) hemorrhagic shock with LQGV (SEQ ID NO:2) treatment (HS/LQGV (SEQ ID NO:2)), 4) hemorrhagic shock with AQGV treatment (HS/AQGV (SEQ ID NO:1)) and 5) hemorrhagic shock with LAGV (SEQ ID NO:3) treatment (HS/LAGV (SEQ ID NO:3). […] Sixty minutes after induction of hemorrhagic shock, rats were resuscitated by autologous blood transfusion over a period of 30 minutes and monitored for another 120 minutes, after which they were sacrificed (FIG. 7, Panel A). […]
Plasma collection and storage: Arterial blood was obtained 15 minutes before and 30, 60, 90, 120, 150 and 180 minutes after onset of hemorrhage (FIG. 7, Panel A). After blood withdrawal, leukocyte numbers were determined using a coulter counter (Beckman Coulter, Mijdrecht, The Netherlands) and corrected for the hematocrit. […]

ICAM-1 = assay: Hemorrhagic shock model, Example 2: ICAM-1 mRNA transcripts in tissue by RQ-PCR; format: in vivo, Wistar rats; conditions: 180 minutes after onset of shock, 10 mg/kg, normalized against GAPDH
Protocol: as §1, §2, §3, §4

[5] = system: pro-inflammatory cytokines; conditions: 150 mg/kg; cited from earlier work

Substance | TNF-α transcripts in the liver compared to non-treated HS (TNF-α [1]) | leukocyte concentration, peptide-treated vs non-treated animals (hemorrhagic shock) | leukocytes, minimum during trauma-hemorrhage (hemorrhagic shock) [%] | concentrations of circulating macrophages and granulocytes compared to the non-treated animals (hemorrhagic shock) | blood levels of circulating macrophages and granulocytes (hemorrhagic shock; 5 mg/kg i.v.) | concentrations of circulating macrophages and granulocytes compared with the corresponding experimental group (hemorrhagic shock; 5 mg/kg i.v.) | decrease of circulating macrophages and granulocytes compared with concentrations after trauma-hemorrhage (hemorrhagic shock; 5 mg/kg i.v.) [%] | arterial hepatic blood flow during the shock period (hemorrhagic shock; 5 mg/kg i.v.) [%] | increase in plasma TNF-α levels during the experiment (TNF-α [2]) | TNF-α plasma levels (TNF-α [2]) | IL-6 mRNA transcripts in the liver compared to the HS group (IL-6 [3]) | IL-6 plasma levels compared to the non-treated hemorrhagic shock group (IL-6 [4]) | ICAM-1 transcript levels in the liver (ICAM-1) | blood flow in the hepatic artery during the reperfusion (hemorrhagic shock; reperfusion, 5 mg/kg i.v., shock group 128.9±75.4%, control 83.7±24.2%) [%] | mRNA expression of pro-inflammatory cytokines in the liver after hemorrhagic shock [5]
LQGV [synthetic tetrapeptide, part of the primary structure of loop two of the β-subunit of hCG] | significant reduction | No significant difference | 38.2±7.4 | decreased | 3,846±0.636 10^9/1 | significantly lower | 39.2 | 21.2±8.6 | none | significant reduction | significant reduction | significant reduction | did not affect |  | 
AQGV [synthetic tetrapeptide, alanine replacement variant of LQGV from loop two of the β-subunit of hCG] | reduction | No significant difference | 47.3±12.4 | decreased | 4,432±0.736 10^9/1 | significantly lower | 29.9 | 18.1±9.0 | none | significant reduction | significant reduction | significant reduction | did not affect | 78.4±28.3 | 
Alanine-glutamine dipeptide [AG] |  |  |  |  |  |  |  |  |  |  |  |  |  |  | inhibited
LAGV [synthetic tetrapeptide, alanine replacement variant of LQGV from loop two of the β-subunit of hCG] | reduction | No significant difference | 42.0±8.7 |  |  |  |  | 21.3±9.1 | none | significant reduction | reduction | significant reduction | did not affect |  | 
